In patent publication US12325697B2 (Nimbus Clio, Inc., priority 2021, dated 2025):

Experiments:
[1] = target: Recombinant human Cbl-b (aa 36-427) (Homo sapiens (Human), UniProt Q13191); test: Cbl-b Biochemical Assay (TR-FRET); details: read-out: TR-FRET hCbl-b IC50
Summary of the method: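 Two-step TR-FRET: 6 nM biotinylated Cbl-b preincubated 30-60 min with compound, then 60 min at RT with 1-2.5 nM Src-Zap70 and 0.5 mM ATP in HEPES pH 7.0 buffer, 1% DMSO. Stopped with 5 mM EDTA plus 100 nM UBE2D2-Ub-FL-BODIPY and 1 nM streptavidin-Tb, 60 min; 520 nm signal; IC50 from 4-parameter fit.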

[2] = target: Recombinant human c-Cbl (aa 47-435) (Homo sapiens (Human), UniProt P22681); test: c-Cbl Biochemical Assay (TR-FRET)
Sequence of Recombinant human c-Cbl (aa 47-435) (P22681 47-435): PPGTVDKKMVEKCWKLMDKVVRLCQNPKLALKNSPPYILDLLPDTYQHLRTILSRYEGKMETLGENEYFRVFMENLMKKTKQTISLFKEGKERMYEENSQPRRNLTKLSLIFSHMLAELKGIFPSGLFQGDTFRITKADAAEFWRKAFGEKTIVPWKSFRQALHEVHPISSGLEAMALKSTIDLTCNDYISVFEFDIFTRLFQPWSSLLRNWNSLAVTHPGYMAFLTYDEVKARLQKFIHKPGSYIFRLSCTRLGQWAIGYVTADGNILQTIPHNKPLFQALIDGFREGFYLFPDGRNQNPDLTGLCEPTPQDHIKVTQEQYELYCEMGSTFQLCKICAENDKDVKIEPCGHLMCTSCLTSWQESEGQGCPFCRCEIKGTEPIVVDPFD
Method: Recombinant human c-Cbl (aa 47-435) was expressed in E. coli, purified and biotinylated in vitro. The protein was diluted to 12 nM in freshly prepared assay buffer consisting of 50 mM HEPES, pH 7.0, 100 mM NaCl, 5 mM MgCl2, 0.01% Triton-X 100, 0.01% BSA and 1 mM DTT. Recombinant human Src (aa 254-536)-[…]-Zap-70 (aa 281-297) fusion protein was expressed in E. coli and purified. Protein was diluted in assay buffer to 5-20 nM and ATP was added to 1 mM. Recombinant human UBE2D2([…]) was expressed in E. coli, purified and ubiquitinated and Bodipy labelled in vitro. Protein was diluted to 200 nM in assay buffer without MgCl2 (or Cisbio PPI buffer). Streptavidin-Terbium was added to 2 nM and EDTA to 10 mM, to provide a binding assay mix. Compounds were dissolved in DMSO and diluted to prepare a ten-point half log dilution series. 100 nl of each compound concentration was dispensed in duplicate in a 384 well black assay plate using acoustic dispensing. Wells for maximum signal controls received 100 nl of DMSO only and wells for minimum controls received 100 nl of a reference inhibitor compound at a final assay concentration of […] to produce 100% inhibition. 5 μl of diluted c-cbl enzyme was added to all wells of the assay plate and incubated at RT for 30 min. The enzyme assay was initiated by addition of 5 μl of Src-Zap/ATP mix to all wells, and the plate incubated at RT for 60-90 min. The enzyme reaction was terminated and the binding reaction was initiated by adding 10 μl of binding assay mix to all wells and incubating the plate at RT for 60 min prior to assay read. Final assay conditions consisted of 6 nM c-cbl, 2.5-10 nM Src-Zap70, 0.5 mM ATP, 1% (v/v) DMSO (enzyme reaction) and 100 nM UBE2D2([…])-Ub-FL-BODIPY, 5 mM EDTA, 1 nM Streptavidin-Tb (binding reaction). The HTRF assay signal was measured at 520 nm on an Envision plate reader, with reference signal at 485 or 620 nm. Data was normalized using maximum and minimum assay controls: % Inhibition=100-(100*((maximum control)-unknown)/(maximum control-minimum control)). A 4-parameter dose-response equation was used to fit the normalized dose-response data and derive an IC50 for test compounds.

Sequence of Recombinant human Cbl-b (aa 36-427) (Q13191 36-427): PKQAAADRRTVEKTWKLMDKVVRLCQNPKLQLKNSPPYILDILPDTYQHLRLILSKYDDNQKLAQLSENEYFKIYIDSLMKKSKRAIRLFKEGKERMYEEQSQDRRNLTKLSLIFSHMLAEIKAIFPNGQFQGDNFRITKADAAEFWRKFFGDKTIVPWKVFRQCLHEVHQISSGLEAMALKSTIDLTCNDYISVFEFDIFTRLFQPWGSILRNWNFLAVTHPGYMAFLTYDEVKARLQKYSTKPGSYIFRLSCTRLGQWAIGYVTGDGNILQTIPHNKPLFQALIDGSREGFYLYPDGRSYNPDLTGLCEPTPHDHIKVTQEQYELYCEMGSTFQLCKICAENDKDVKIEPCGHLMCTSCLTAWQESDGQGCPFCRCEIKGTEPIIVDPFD

In the case of `Cn1cnnc1-c1cc(C#N)ccc1-c1cc(C2CC2)nc(N2Cc3c(F)cc(CN[C@]4(C)COC[C@@H]4O)cc3C2=O)c1` (relative stereo) [AOH-1, rel-4-{2-Cyclopropyl-6-[4-fluoro-6-({[(3R,4R)-4-hydroxy-3-methyloxolan-3-yl]amino}methyl)-1-oxo-3H-isoindol-2-yl]pyridin-4-yl}-3-(4-methyl-1,2,4-triazol-3-yl)benzonitrile], the IC50 [1] is reported as ≤ 200 nM and the IC50 [2] is reported as ≤ 200 nM.

In the case of `Cn1cnnc1-c1cc(C#N)ccc1-c1cc(C2CC2)nc(N2Cc3c(F)cc(CN4CC[C@@H]5OCC[C@@H]54)cc3C2=O)c1` (single isomer, unassigned) [ANG-1], the IC50 [1] is reported as ≤ 200 nM and the IC50 [2] is reported as ≤ 200 nM.

In the case of `Cn1cnnc1-c1cc(C#N)ccc1-c1cc(C2CC2)nc(N2Cc3c(F)cc(CN4CC[C@H]5OCC[C@H]54)cc3C2=O)c1` (single isomer, unassigned) [ANH-1], the IC50 [1] is reported as ≤ 200 nM and the IC50 [2] is reported as ≤ 200 nM.

`CCOc1cc(-c2ccc(F)cc2-c2nncn2C)cc(N2Cc3ccc(CO)cc3C2=O)n1` [ANS-1] showed an IC50 [2] of 200 to 1000 nM.

`CCNc1cc(-c2ccccc2-c2nncn2C)cc(N2Cc3c(cc(CN[C@H]4CCC[C@H]4O)cc3C(F)(F)F)C2=O)n1` [AR-1, 2-(6-(Ethylamino)-4-(2-(4-methyl-4H-1,2,4-triazol-3-yl)phenyl)pyridin-2-yl)-6-((((1S,2R)-2-hydroxycyclopentyl)amino)methyl)-4-(trifluoromethyl)isoindolin-1-one] was tested, and the IC50 [1] was ≤ 200 nM.

With `CCNc1cc(-c2ccccc2-c2nncn2C)cc(N2Cc3c(cc(COC)cc3C(F)(F)F)C2=O)n1` [AS-2, 2-(6-(Ethylamino)-4-(2-(4-methyl-4H-1,2,4-triazol-3-yl)phenyl)pyridin-2-yl)-6-(methoxymethyl)-4-(trifluoromethyl)isoindolin-1-one] the IC50 [1] was ≤ 200 nM.

`COc1ccc([C@@H](C)Cc2nncn2C)cc1N1Cc2c(cc(CN3CCCC3)cc2C(F)(F)F)C1=O` [Example F-9, (S)-2-(2-Methoxy-5-(1-(4-methyl-4H-1,2,4-triazol-3-yl)propan-2-yl)phenyl)-6-(pyrrolidin-1-ylmethyl)-4-(trifluoromethyl)isoindolin-1-one] was tested, and the IC50 [1] was 1000 to 10000 nM.

`COc1ccc(-c2ccccc2-c2nncn2C)cc1N1Cc2c(cccc2C(F)(F)F)C1=O` [Example G-4, 2-(4-Methoxy-2′-(4-methyl-4H-1,2,4-triazol-3-yl)-[1,1′-biphenyl]-3-yl)-4-(trifluoromethyl)isoindolin-1-one] showed an IC50 [1] of 10000 to 50000 nM.

For `COC(=O)c1cc(-c2ccccc2-c2nncn2C)cc(N2Cc3c(cccc3C(F)(F)F)C2=O)c1` [Example H-5, Methyl 2′-(4-methyl-4H-1,2,4-triazol-3-yl)-5-(1-oxo-4-(trifluoromethyl)isoindolin-2-yl)-[1,1′-biphenyl]-3-carboxylate], the IC50 [1] was 10000 to 50000 nM.

Compound `Cn1cnnc1-c1ccccc1-c1cc(C(=O)O)cc(N2Cc3c(cccc3C(F)(F)F)C2=O)c1` [Example I-1, 2′-(4-Methyl-4H-1,2,4-triazol-3-yl)-5-(1-oxo-4-(trifluoromethyl)isoindolin-2-yl)-[1,1′-biphenyl]-3-carboxylic acid] has an IC50 [1] of 10000 to 50000 nM.

`Cn1cnnc1-c1ccccc1-c1cc(N2Cc3c(cccc3C(F)(F)F)C2=O)nc(C(F)(F)F)c1` [Example J-4, 2-(4-(2-(4-Methyl-4H-1,2,4-triazol-3-yl)phenyl)-6-(trifluoromethyl)pyridin-2-yl)-4-(trifluoromethyl)isoindolin-1-one] was tested, and the IC50 [1] was 10000 to 50000 nM.

For `Cn1cnnc1-c1ccccc1-c1cc(N2Cc3c(cccc3C(F)(F)F)C2=O)cc(C(F)(F)F)c1` [Example K-3, 2-(2′-(4-Methyl-4H-1,2,4-triazol-3-yl)-5-(trifluoromethyl)-[1,1′-biphenyl]-3-yl)-4-(trifluoromethyl)isoindolin-1-one], the IC50 [1] was 1000 to 10000 nM.

Compound `Cn1cnnc1-c1ccccc1-c1cc(N2Cc3c(cccc3C(F)(F)F)C2=O)nc2[nH]ccc12` [Example L-5, 2-(4-(2-(4-Methyl-4H-1,2,4-triazol-3-yl)phenyl)-1H-pyrrolo[2,3-b]pyridin-6-yl)-4-(trifluoromethyl)isoindolin-1-one] has an IC50 [1] of 10000 to 50000 nM.

In the case of `CCn1ccc2c(-c3ccccc3-c3nncn3C)cc(N3Cc4c(cccc4C(F)(F)F)C3=O)nc21` [Example M-2, 2-(1-Ethyl-4-(2-(4-methyl-4H-1,2,4-triazol-3-yl)phenyl)-1H-pyrrolo[2,3-b]pyridin-6-yl)-4-(trifluoromethyl)isoindolin-1-one], the IC50 [1] is reported as 1000 to 10000 nM.

Compound `Cn1cnnc1-c1ccccc1-c1cc(CO)cc(N2Cc3c(cccc3C(F)(F)F)C2=O)c1` [Example N-5, 2-(5-(Hydroxymethyl)-2′-(4-methyl-4H-1,2,4-triazol-3-yl)-[1,1′-biphenyl]-3-yl)-4-(trifluoromethyl)isoindolin-1-one] has an IC50 [1] of 1000 to 10000 nM.

For `CNC(=O)c1cc(-c2ccccc2-c2nncn2C)cc(N2Cc3c(cccc3C(F)(F)F)C2=O)c1` [Example O-3, N-Methyl-2′-(4-methyl-4H-1,2,4-triazol-3-yl)-5-(1-oxo-4-(trifluoromethyl)isoindolin-2-yl)-[1,1′-biphenyl]-3-carboxamide], the IC50 [1] was 10000 to 50000 nM.

With `Cn1cnnc1-c1ccccc1-c1cccc(N2Cc3c(cc(CO)cc3C(F)(F)F)C2=O)c1` [Example P-2, 6-(Hydroxymethyl)-2-(2′-(4-methyl-4H-1,2,4-triazol-3-yl)-[1,1′-biphenyl]-3-yl)-4-(trifluoromethyl)isoindolin-1-one] the IC50 [1] was 200 to 1000 nM.

`C[C@H]1CCCN(Cc2cc3c(c(C(F)(F)F)c2)CN(c2cccc(-c4ccccc4-c4nncn4C)c2)C3=O)C1` [Example R-2, (S)-2-(2′-(4-Methyl-4H-1,2,4-triazol-3-yl)-[1,1′-biphenyl]-3-yl)-6-((3-methylpiperidin-1-yl)methyl)-4-(trifluoromethyl)isoindolin-1-one] was tested, and the IC50 [1] was ≤ 200 nM.

`C[C@@H]1CCCN(Cc2cc3c(c(C(F)(F)F)c2)CN(c2cccc(-c4ccccc4-c4nncn4C)c2)C3=O)C1` [Example S-2, (R)-2-(2′-(4-Methyl-4H-1,2,4-triazol-3-yl)-[1,1′-biphenyl]-3-yl)-6-((3-methylpiperidin-1-yl)methyl)-4-(trifluoromethyl)isoindolin-1-one] was tested, and the IC50 [1] was 200 to 1000 nM.

With `Cn1cnnc1-c1ccccc1-c1cccc(N2Cc3c(cc(CN[C@H]4CCC[C@@H]4O)cc3C(F)(F)F)C2=O)c1` [Example T-2, 6-((((1S,2S)-2-Hydroxycyclopentyl)amino)methyl)-2-(2′-(4-methyl-4H-1,2,4-triazol-3-yl)-[1,1′-biphenyl]-3-yl)-4-(trifluoromethyl)isoindolin-1-one] the IC50 [1] was ≤ 200 nM.

In the case of `Cn1cnnc1-c1ccccc1-c1cccc(N2Cc3c(cc(CN4CC[C@H](F)C4)cc3C(F)(F)F)C2=O)c1` [Example V-2, (S)-6-((3-Fluoropyrrolidin-1-yl)methyl)-2-(2′-(4-methyl-4H-1,2,4-triazol-3-yl)-[1,1′-biphenyl]-3-yl)-4-(trifluoromethyl)isoindolin-1-one], the IC50 [1] is reported as ≤ 200 nM.

In the case of `Cn1cnnc1-c1ccccc1-c1cccc(N2Cc3c(cc(CN[C@@H]4CCC[C@H]4O)cc3C(F)(F)F)C2=O)c1` [Example W-2, 6-((((1R,2R)-2-Hydroxycyclopentyl)amino)methyl)-2-(2′-(4-methyl-4H-1,2,4-triazol-3-yl)-[1,1′-biphenyl]-3-yl)-4-(trifluoromethyl)isoindolin-1-one], the IC50 [1] is reported as ≤ 200 nM.

`C[C@@H]1CN(Cc2cc3c(c(C(F)(F)F)c2)CN(c2cccc(-c4ccccc4-c4nncn4C)c2)C3=O)CCO1` [Example X-2, (R)-2-(2′-(4-Methyl-4H-1,2,4-triazol-3-yl)-[1,1′-biphenyl]-3-yl)-6-((2-methylmorpholino)methyl)-4-(trifluoromethyl)isoindolin-1-one] was tested, and the IC50 [1] was ≤ 200 nM.

In the case of `Cn1cnnc1-c1ccccc1-c1cccc(N2Cc3c(cc(CN4CC[C@@H](F)C4)cc3C(F)(F)F)C2=O)c1` [Example Y-2, (R)-6-((3-Fluoropyrrolidin-1-yl)methyl)-2-(2′-(4-methyl-4H-1,2,4-triazol-3-yl)-[1,1′-biphenyl]-3-yl)-4-(trifluoromethyl)isoindolin-1-one], the IC50 [1] is reported as 200 to 1000 nM.
